# What was measured:
# [1] = tested on: Clostridium autoethanogenum DSM23693; experiment: Toxicity of acetone and isopropanol on growing cultures; type: cell-based; settings: at concentrations as high as 5%
# Description: Several metabolites such as alcohols (ethanol and butanol) or acids (acetic acid and butyric acid) are known to be toxic for bacteria in high concentrations and thus limit their biotechnological production [Alsaker K V, Parades C, Papoutsakis E T: Metabolite stress and tolerance in the production of biofuels and chemicals—systems analysis of butanol, butyrate, and Acetate Stresses in the Anaerobe Clostridium acetobutylicum. Biotechnol Bioeng, 2009, 105: 1131-1147]. To see if acetone and isopropanol have a toxic effect on cultures, growth experiments were carried out in 50 ml PETC media (Table 2) in serum bottles, adding different concentrations of acetone (FIG. 12) and isopropanol (FIG. 13) to growing cultures of Clostridium autoethanogenum DSM23693.
# [2] = tested on: E. coli; experiment: Serum bottle experiments with plasmid constructs, sugar as sole substrate; type: cell-based, Escherichia coli; settings: Organism E. coli, 'Detected' = by GC qualitatively
# Procedure: (§1) Constructed expression plasmids pMTL85245-kivd-adh2 and pMTL85245-kivd were transformed into E. coli strain JW3350-2 and prepared for transformation in C. autoethanogenum DSM23693, which was performed as described above. […] In serum bottle experiments, highest isopropanol concentrations from CO-containing steel mill gas were 0.050-0.064 g/L for both expression plasmids (FIGS. 65 and 66).
# (§2) All plasmid construct were tested in E. coli and C. autoethanogenum DSM23693 using serum bottle experiments with sugar (E. coli) or CO-containing steel mill gas (C. autoethanogenum) as sole substrate. With all combinations tested, acetone and isopropanol production was measured when expressed heterologously in C. autoethanogenum, while in E. coli acetone production only occurred with few combinations and an alcohol dehydrogenase gene was needed for isopropanol production (Table 21). […] In C. autoethanogenum, acetone and isopropanol production even occurred with expressing the decarboxylase as only heterologous gene, indicating CoA-transferase activity. FIG. 4 illustrates the proposed pathway and Table 21 of acetone and isopropanol formation from CO and FIG. 73 gives an overview of combinations of Clostridial pathway genes and codon-optimized genes for Alpha-ketoacid decarboxylase Kivd from L lactis and Alcohol dehydrogenase Adh2 from S. cerevisiae tested in E. coli and C. autoethanogenum.
# [3] = tested on: C. autoethanogenum DSM23693; experiment: Bottle growth experiments on CO-containing gas, acetone/isopropanol production from expression plasmids; type: cell-based, Clostridium autoethanogenum; settings: Organism C. autoethanogenum, Substrate CO; for Acetone (g/L): 'Detected' = by GC qualitatively
# Procedure: HPLC analysis of acetone, isopropanol and other metabolites was performed using an Agilent 1100 Series HPLC system equipped with a RID operated at 35° C. (Refractive Index Detector) and an Alltech IOA-2000 Organic acid column (150×6.5 mm, particle size 5 μm) kept at 60° C. Slightly acidified water was used (0.005 M H2SO4) as mobile phase with a flow rate of 0.7 ml/min. To remove proteins and other cell residues, 400 μl samples were mixed with 100 μl of a 2% (w/v) 5-Sulfosalicylic acid and centrifuged at 14,000×g for 3 min to separate precipitated residues. 10 μl of the supernatant were then injected into the HPLC for analyses.
# GC analysis of acetone, isopropanol and other metabolites was performed using an Agilent 6890N headspace GC equipped with a Supelco PDMS 100 1 cm fiber, an Alltech EC-1000 (30 m×0.25 mm×0.25 μm) column, and a flame ionization detector (FID). 5 ml samples were transferred into a Hungate tube, heated to 40° C. in a water bath and exposed to the fiber for exactly 5 min. The injector was kept at 250° C. and helium with a constant flow of 1 ml/min was used as carrier gas. The oven program was 40° C. for 5 min, followed by an increase of 10° C./min up to 200° C. The temperature was then further increased to 220° C. with a rate of 50° C./min followed by a 5 min hold this temperature, before the temperature was decreased to 40° C. with a rate of 50° C./min and a final 1 min hold. The FID was kept at 250° C. with 40 ml/min hydrogen, 450 ml/min air and 15 ml/min nitrogen as make up gas.
# Growth experiments were carried out with transformed C. autoethanogenum DSM23693 and C. ljungdahlii DSM 13528 carrying plasmid pMTL85147-thlA-ctfAB-adc in 250 ml PETC media (Table 2; without fructose and yeast extract) in 1 l Schott bottles with rubber stoppers and 30 psi steel mill gas (collected from New Zealand Steel site in Glenbrook, NZ; composition: 44% CO, 32% N2, 22% CO2, 2% H2) in the headspace as sole energy and carbon source. Acetone production was confirmed with both strains using HPLC and GC analysis. […] Using appropriate conditions, the produced acetone can then be further converted to isopropanol.
# Therefore, both cultures were re-gassed with 30 psi fresh steel-mill gas after 48 h of growth and also re-inoculated. While biomass didn't increase much further, some of the produced acetone got converted into isopropanol within 24 hours (Table 16).
# as §1, §2
# [4] = tested on: C. autoethanogenum DSM23693; experiment: Experiment B: bioreactor fermentation on corex gas with cell retention; type: cell-based, Clostridium autoethanogenum; settings: corex gas 40% CO, continuous mode with membrane cell retention
# Procedure: Fermentations with C. autoethanogenum DSM23693 carrying the vector pMTL83147 thl-ctfAB-adc-adh2 were carried out in 1.5 L bioreactors at 37° C. and CO-containing steel mill gas. The fermenter was fed with corex gas (40% CO, 15% H2, 15% CO2, 30% N2) as sole energy and carbon source as described below. A defined medium was used containing per litre: MgCl, CaCl2 (0.5 mM), KCl (3 mM), H3PO4 (5 mM), Fe (100 μM), Ni, Zn (5 μM), Mn, B, W, Mo, Se (2 μM) was prepared for culture growth. The media was transferred into the bioreactor and autoclaved at 121° C. for 45 minutes. After autoclaving, the medium was supplemented with Thiamine, Pantothenate (0.05 mg), Biotin (0.02 mg) and reduced with 3 mM Cysteine-HCl. To achieve anaerobic conditions the reactor vessel was sparged with nitrogen through a 0.2 μm filter. […]
# Metabolites concentrations were measured using Agilent 1100 Series HPLC system equipped with a RID operated at 35° C. […] The presence of Acetone and Isopropanol was also measured using Agilent 6890N headspace GC equipped with a Supelco PDMS 100 1 cm fiber, an Alltech EC-1000 (30 m×0.25 mm×0.25 μm) column, and a flame ionization detector (FID). The composition of the gas inflows and outflows was measured using a Varian CP-4900 micro GC with two installed channels. […] Gas analysis was automated and measured hourly.
# [5] = tested on: Clostridium autoethanogenum DSM23693; experiment: Experiment A: continuous fermentation on steel mill gas; type: cell-based
# Procedure: Clostridium autoethanogenum DSM23693 carrying the vector pMTL83147 thl-ctfAB-adc-adh2 was grown at 37° C. under mill gas (50% CO, 18% CO2, 2% H2, and 30% N2) was continuously fed into the bioreactor. The gas flow was initially set at 80 ml/min, increasing to 200 ml/min over the course of the experiment, while the agitation was increased from 250 rpm to 750 rpm. Na2S was dosed into the bioreactor at 0.20 ml/hr, increasing to 0.4 ml/hr. The bioreactor was switched to a continuous mode at a rate of 1.0 ml/min (Dilution rate 0.96 d^−1) once the OD600 reached 0.17.
# Metabolites concentrations were measured using Agilent 1100 Series HPLC system equipped with a RID operated at 35° C. (Refractive Index Detector) and an Alltech IOA-2000 Organic acid column (150×6.5 mm, particle size 5 μm) kept at 60° C. The presence of Acetone and Isopropanol was also measured using Agilent 6890N headspace GC equipped with a Supelco PDMS 100 1 cm fiber, an Alltech EC-1000 (30 m×0.25 mm×0.25 μm) column, and a flame ionization detector (FID). The composition of the gas inflows and outflows was measured using a Varian CP-4900 micro GC with two installed channels. Channel 1 was a 10 m Mol-sieve column running at 70° C., 200 kPa argon and a backflush time of 4.2 s, while channel 2 was a 10 m PPQ column running at 90° C., 150 kPa helium and no backflush. The injector temperature for both channels was 70° C. Sampling of metabolites was performed daily. Gas analysis was automated and measured hourly.
# The growth and metabolite profile of Clostridium autoethanogenum DSM23693 carrying the vector pMTL83147 thl-ctfAB-adc-adh2 in a continuous fermentation over 31 days is shown in FIG. 75. The fermentation ran as a batch fermentation from inoculation to day 6. At day 7 the fermentation was switched to continuous fermentation. The increase in acetate concentration coupled with a decrease in ethanol concentration during continuous fermentation seems to have triggered a significant increase in isopropanol production. […] A GC sample was taken during the run, at day 19.
# [6] = continuous fermentation over 31 days, mill gas 50% CO
Compound,inhibition of growth rate [1],Acetone [2] [g/L],Isopropanol [3] [g/L],Acetone (g/L) [3],also measured
CC(C)=O [acetone],only slight inhibition of growth rate,,,,
CC(C)O [isopropanol],only slight inhibition of growth rate,,,,
"pMTL83147-thlA-ctfAB-adc-P-kivd-adh2: expression plasmid with thlA, ctfAB, adc and Ppta-ack-kivd-adh2, Seq. ID. 101",,0.076,0.043,Detected,
"pMTL83147-thlA-ctfAB-adc-adh2: expression plasmid with thlA, ctfAB, adc and Adh2 from S. cerevisiae, Seq. ID. No. 98",,0.040,0.648,Detected,"isopropanol concentration reached [4]: 0.37 g per Litre; presence of the plasmid by PCR ([5]; checked regularly throughout the fermentation): found to be present throughout the fermentation; Isopropanol production rate [5, 6]: 0.7 g per litre per day; isopropanol concentration reached [5, 6]: 0.250 g per litre"
pMTL85147-thlA-ctfAB-adc-kivd: combination plasmid of Clostridial genes and kivd as labelled in Table 21; probably Seq. ID. No. 95,,,0.091,Detected,Acetone (g/L) [2]: Detected
